# Experiments:
# MDA-MB-435 = assay: NCI-60 anticancer screening (SRB); assay type: cell-based; details: Homo sapiens; MDA-MB-435, melanoma; one dose 10 μM; read-out: Growth Inhibition Percentage (GI %)
# HL-60(TB) = assay: NCI-60 anticancer screening (SRB); assay type: cell-based; details: Homo sapiens, leukemia, one dose 10 μM, read-out: Growth Inhibition Percentage (GI %)
# KM 12 = assay: NCI-60 anticancer screening (SRB); assay type: cell-based; details: Homo sapiens, KM12; KM 12, colon cancer; one dose 10 μM; read-out: Growth Inhibition Percentage (GI %)
# T-47D = assay: NCI-60 anticancer screening (SRB); assay type: cell-based; details: Homo sapiens, T47D, breast cancer, one dose 10 μM, read-out: Growth Inhibition Percentage (GI %)
# EKVX = assay: NCI-60 anticancer screening (SRB); assay type: cell-based; details: Homo sapiens, NSC lung cancer, one dose 10 μM, read-out: Growth Inhibition Percentage (GI %)
# TK-10 = assay: NCI-60 anticancer screening (SRB); assay type: cell-based; details: Homo sapiens; TK-10, renal cancer; one dose 10 μM; read-out: Growth Inhibition Percentage (GI %)
# SN 12C = assay: NCI-60 anticancer screening (SRB); assay type: cell-based; details: Homo sapiens, SN12C; SN 12C, renal cancer; one dose 10 μM; read-out: Growth Inhibition Percentage (GI %)
# A549/ATCC = assay: NCI-60 anticancer screening (SRB); assay type: cell-based; details: Homo sapiens; A549/ATCC, NSC lung cancer; one dose 10 μM; read-out: Growth Inhibition Percentage (GI %)
# MDA-MB-231 = assay: NCI-60 anticancer screening (SRB); assay type: cell-based; details: Homo sapiens; MDA-MB-231, breast cancer; one dose 10 μM; read-out: Growth Inhibition Percentage (GI %)
# SK-MEL-28 = assay: NCI-60 anticancer screening (SRB); assay type: cell-based; details: Homo sapiens; SK-MEL-28, melanoma; one dose 10 μM; read-out: Growth Inhibition Percentage (GI %)
# SF-268 = assay: NCI-60 anticancer screening (SRB); assay type: cell-based; details: Homo sapiens; SF-268, CNS cancer; one dose 10 μM; read-out: Growth Inhibition Percentage (GI %)
# HT29 = assay: NCI-60 anticancer screening (SRB); assay type: cell-based; details: Homo sapiens, HT-29; HT29, colon cancer; one dose 10 μM; read-out: Growth Inhibition Percentage (GI %)
# SK-MEL-5 = assay: NCI-60 anticancer screening (SRB); assay type: cell-based; details: Homo sapiens; SK-MEL-5, melanoma; one dose 10 μM; read-out: Growth Inhibition Percentage (GI %)
# SNB-75 = assay: NCI-60 anticancer screening (SRB); assay type: cell-based; details: Homo sapiens; SNB-75, CNS cancer; one dose 10 μM; read-out: Growth Inhibition Percentage (GI %)
# 786-0 = assay: NCI-60 anticancer screening (SRB); assay type: cell-based; details: Homo sapiens; 786-0, renal cancer; one dose 10 μM; read-out: Growth Inhibition Percentage (GI %)
# NCI-H460 = assay: NCI-60 anticancer screening (SRB); assay type: cell-based; details: Homo sapiens; NCI-H460, NSC lung cancer; one dose 10 μM; read-out: Growth Inhibition Percentage (GI %)
# UACC-62 = assay: NCI-60 anticancer screening (SRB); assay type: cell-based; details: Homo sapiens; UACC-62, melanoma; one dose 10 μM; read-out: Growth Inhibition Percentage (GI %)
# SNB-19 = assay: NCI-60 anticancer screening (SRB); assay type: cell-based; details: Homo sapiens; SNB-19, CNS cancer; one dose 10 μM; read-out: Growth Inhibition Percentage (GI %)
# HOP-62 = assay: NCI-60 anticancer screening (SRB); assay type: cell-based; details: Homo sapiens; HOP-62, NSC lung cancer; one dose 10 μM; read-out: Growth Inhibition Percentage (GI %)
# CAKI-1 = assay: NCI-60 anticancer screening (SRB); assay type: cell-based; details: Homo sapiens; CAKI-1, renal cancer; one dose 10 μM; read-out: Growth Inhibition Percentage (GI %)
# HCC-2998 = assay: NCI-60 anticancer screening (SRB); assay type: cell-based; details: Homo sapiens; HCC-2998, colon cancer; one dose 10 μM; read-out: Growth Inhibition Percentage (GI %)
# NCI 60 cancer cell lines = assay: NCI-60 anticancer screening (SRB), whole panel; assay type: cell-based, human; details: mean across the NCI-60 panel; one dose 10 μM
# HCT-15 = assay: NCI-60 anticancer screening (SRB); assay type: cell-based; details: Homo sapiens; HCT-15, colon cancer; one dose 10 μM; read-out: Growth Inhibition Percentage (GI %)
# RPMI-8226 = assay: NCI-60 anticancer screening (SRB); assay type: cell-based; details: Homo sapiens; RPMI-8226, leukemia; one dose 10 μM; read-out: Growth Inhibition Percentage (GI %)
# DU-145 = assay: NCI-60 anticancer screening (SRB); assay type: cell-based; details: Homo sapiens; DU-145, prostate cancer; one dose 10 μM; read-out: Growth Inhibition Percentage (GI %)
# RXF 393 = assay: NCI-60 anticancer screening (SRB); assay type: cell-based; details: Homo sapiens; RXF 393, renal cancer; one dose 10 μM; read-out: Growth Inhibition Percentage (GI %)
# NCI-H322M = assay: NCI-60 anticancer screening (SRB); assay type: cell-based; details: Homo sapiens, NSC lung cancer, one dose 10 μM, read-out: Growth Inhibition Percentage (GI %)
# M14 = assay: NCI-60 anticancer screening (SRB); assay type: cell-based; details: Homo sapiens; M14, melanoma; one dose 10 μM; read-out: Growth Inhibition Percentage (GI %)
# SF-539 = assay: NCI-60 anticancer screening (SRB); assay type: cell-based; details: Homo sapiens; SF-539, CNS cancer; one dose 10 μM; read-out: Growth Inhibition Percentage (GI %)
# NCI-H522 = assay: NCI-60 anticancer screening (SRB); assay type: cell-based; details: Homo sapiens; NCI-H522, NSC lung cancer; one dose 10 μM; read-out: Growth Inhibition Percentage (GI %)
# SF-295 = assay: NCI-60 anticancer screening (SRB); assay type: cell-based; details: Homo sapiens; SF-295, CNS cancer; one dose 10 μM; read-out: Growth Inhibition Percentage (GI %)
# NCI/ADR-RES = assay: NCI-60 anticancer screening (SRB); assay type: cell-based; details: Homo sapiens, ovarian cancer, one dose 10 μM, read-out: Growth Inhibition Percentage (GI %)
structure (smiles),measurement,setting,value
"CCOC(=O)C1=C(N)N(c2ccccc2)C2=C(C(=O)CC(C)(C)C2)C1c1ccc([N+](=O)[O-])cc1 (racemic) [8i, (±)-Ethyl 2-amino-4–(4-nitrophenyl)-7,7-dimethyl-5-oxo-1-phenyl-1,4,5,6,7,8-hexahydroquinoline-3-carboxylate]",inhibition at 10 µM,MDA-MB-435,< 10%
same,inhibition at 10 µM,HL-60(TB),< 10%
same,inhibition at 10 µM,KM 12,< 10%
same,inhibition at 10 µM,T-47D,< 10%
same,inhibition at 10 µM,EKVX,14%
same,inhibition at 10 µM,TK-10,< 10%
same,inhibition at 10 µM,SN 12C,< 10%
same,inhibition at 10 µM,A549/ATCC,< 10%
same,inhibition at 10 µM,MDA-MB-231,< 10%
same,inhibition at 10 µM,SK-MEL-28,< 10%
same,inhibition at 10 µM,SF-268,< 10%
same,inhibition at 10 µM,HT29,< 10%
same,inhibition at 10 µM,SK-MEL-5,< 10%
same,inhibition at 10 µM,SNB-75,< 10%
same,inhibition at 10 µM,786-0,< 10%
same,inhibition at 10 µM,NCI-H460,< 10%
same,inhibition at 10 µM,UACC-62,33%
same,inhibition at 10 µM,SNB-19,< 10%
same,inhibition at 10 µM,HOP-62,< 10%
same,inhibition at 10 µM,CAKI-1,32%
same,inhibition at 10 µM,HCC-2998,< 10%
same,GI % mean,NCI 60 cancer cell lines,- ((-) = GI % mean less than 10)
same,inhibition at 10 µM,HCT-15,14%
same,inhibition at 10 µM,RPMI-8226,17%
same,inhibition at 10 µM,DU-145,< 10%
same,inhibition at 10 µM,RXF 393,< 10%
same,inhibition at 10 µM,NCI-H322M,< 10%
same,inhibition at 10 µM,M14,< 10%
same,inhibition at 10 µM,SF-539,< 10%
same,inhibition at 10 µM,NCI-H522,21%
same,inhibition at 10 µM,SF-295,< 10%
same,inhibition at 10 µM,NCI/ADR-RES,< 10%
"CCOC(=O)C1=C(N)N(c2ccccc2)C2=C(C(=O)CC(C)(C)C2)C1c1ccccc1Cl (racemic) [6a, (±)-Ethyl 2-amino-4–(2-chlorophenyl)-7,7-dimethyl-5-oxo-1-phenyl-1,4,5,6,7,8-hexahydroquinoline-3-carboxylate]",inhibition at 10 µM,MDA-MB-435,27%
same,inhibition at 10 µM,HL-60(TB),123%
same,inhibition at 10 µM,KM 12,42%
same,inhibition at 10 µM,T-47D,48%
same,inhibition at 10 µM,EKVX,26%
same,inhibition at 10 µM,TK-10,< 10%
same,inhibition at 10 µM,SN 12C,25%
same,inhibition at 10 µM,A549/ATCC,25%
same,inhibition at 10 µM,MDA-MB-231,16%
same,inhibition at 10 µM,SK-MEL-28,19%
same,inhibition at 10 µM,SF-268,20%
same,inhibition at 10 µM,HT29,45%
same,inhibition at 10 µM,SK-MEL-5,40%
same,inhibition at 10 µM,SNB-75,34%
same,inhibition at 10 µM,786-0,21%
same,inhibition at 10 µM,NCI-H460,40%
same,inhibition at 10 µM,UACC-62,56%
same,inhibition at 10 µM,SNB-19,30%
same,inhibition at 10 µM,HOP-62,< 10%
same,inhibition at 10 µM,CAKI-1,54%
same,inhibition at 10 µM,HCC-2998,15%
same,GI % mean,NCI 60 cancer cell lines,33%
same,inhibition at 10 µM,HCT-15,51%
same,inhibition at 10 µM,RPMI-8226,78%
same,inhibition at 10 µM,DU-145,12%
same,inhibition at 10 µM,RXF 393,22%
same,inhibition at 10 µM,NCI-H322M,18%
same,inhibition at 10 µM,M14,50%
same,inhibition at 10 µM,SF-539,< 10%
same,inhibition at 10 µM,NCI-H522,43%
same,inhibition at 10 µM,SF-295,25%
same,inhibition at 10 µM,NCI/ADR-RES,27%
